Measured values published in paper PMC8440923, “Peptides Targeting the Interaction Between Erb1 and Ytm1 Ribosome Assembly Factors” (Frontiers in Molecular Biosciences, 2021).
Residues, ends and D or L forms follow the SMILES beside them. No end group written: not given here. *: point of attachment. Biotin = O=C1N[C@H]2[C@H](CS[C@H]2CCCCC(=O)*)N1

Experiments:
Ytm1 [1] = target: T1, Ytm1 (Thermochaetoides thermophila, UniProt G0SFB5); experiment: Biolayer interferometry peptide affinity assay, immobilized biotinylated peptide, Ytm1 analyte; design: species or system Chaetomium thermophilum; details: BLI, streptavidin biosensor, 50 µg/ml biotinylated peptide immobilized, read-out: ka (1/Ms) of Ytm1 binding to immobilized biotinylated peptide
T1 construct: 6xHis; made in house; host or cells: Sf9 insect cells (baculovirus)
T1 sequence (G0SFB5 1-495): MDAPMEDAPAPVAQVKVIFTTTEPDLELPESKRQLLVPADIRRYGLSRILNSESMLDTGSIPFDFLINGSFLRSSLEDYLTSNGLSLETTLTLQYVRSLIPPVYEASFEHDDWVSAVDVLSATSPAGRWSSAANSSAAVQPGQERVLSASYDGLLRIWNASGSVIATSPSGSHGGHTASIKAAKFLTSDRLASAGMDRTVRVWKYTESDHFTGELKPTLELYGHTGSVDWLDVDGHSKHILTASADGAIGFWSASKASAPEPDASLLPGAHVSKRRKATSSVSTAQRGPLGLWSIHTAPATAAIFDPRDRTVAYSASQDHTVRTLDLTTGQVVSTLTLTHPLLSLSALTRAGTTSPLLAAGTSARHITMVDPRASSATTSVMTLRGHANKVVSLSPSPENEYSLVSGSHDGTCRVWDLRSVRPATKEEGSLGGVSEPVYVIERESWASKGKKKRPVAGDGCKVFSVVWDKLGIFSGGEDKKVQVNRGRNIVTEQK
Protocol: (§1) Peptides were commercially obtained from Synpeptide Co., Ltd., Shanghai, China. All experiments have been made in triplicates and include control curves for bait and analyte only.
(§2) BLI was used to determine the affinity between Ytm1 and biotinylated peptides using streptavidin biosensors (FortéBio). The biosensors were hydrated 10 min in the same buffer used on the interference assay, with 0.05% (w/v) bovine serum albumin (BSA). 50 µg/ml of biotinylated peptide was immobilized at the streptavidin biosensor. Increasing concentrations of Ytm1 were used to calculate the KD values using the Blitz Pro 1.2 software using the implemented equations for association and dissociation:
Association phase: y=Rmax 1/1+kd/ka∗[Analyte](1−e^−(ka∗[Analyte]+kd)x) .
Dissociation phase: y=y0 e^−kd(x−x0). y0=Rmax 1/1+kd/ka∗[Analyte](1−e^−(ka∗[Analyte]+kd)x0).
According to P1, P3, and P6 results, a new N-terminal biotynilated peptide synthesis was ordered using the same sequences (Biot-P1, Biot-P3, and Biot-P6, Table 1). Biotynilated peptides Biot-P1 and Biot-P3 were immobilized to the streptavidin biosensor and Ytm1 binding was measured. Similarly, Biot-P6 was immobilized to the streptavidin biosensor followed by Erb1 binding. […] Inconsistent results were obtained in DSF using Erb1 and a proper Tm could not be obtained so thermal shift could not be evaluated for P6.

Erb1/Ytm1 complex [2] = target: T2, Erb1/Ytm1 complex (Thermochaetoides thermophila, UniProt G0SCK6); experiment: Biolayer interferometry peptide interference assay, immobilized Ytm1, Erb1 analyte preincubated with P4-P6; assay type: binding, Chaetomium thermophilum; details: BLI, 20 µM Erb1 preincubated with equimolar peptide, reference without peptide 1.201e-3
T2 construct: 6xHis; made in house; host or cells: Erb1: Escherichia coli (DE3) BL21 CodonPlus (RIPL); Ytm1: Sf9 insect cells (baculovirus)

Erb1 = experiment: Biolayer interferometry peptide affinity assay, immobilized biotinylated peptide, Erb1 analyte; assay type: binding, Chaetomium thermophilum; details: BLI, streptavidin biosensor, Erb1 as analyte
Protocol: as §1
as §2, with “dissociation: […]” for “dissociation:”
According to P1, P3, and P6 results, a new N-terminal biotynilated peptide synthesis was ordered using the same sequences (Biot-P1, Biot-P3, and Biot-P6, Table 1). Biotynilated peptides Biot-P1 and Biot-P3 were immobilized to the streptavidin biosensor and Ytm1 binding was measured. Similarly, Biot-P6 was immobilized to the streptavidin biosensor followed by Erb1 binding. […] To further confirm the interaction a differential scanning fluorimetry assay was performed. […] Inconsistent results were obtained in DSF using Erb1 and a proper Tm could not be obtained so thermal shift could not be evaluated for P6.

Erb1/Ytm1 complex [3] = target: T3, Erb1/Ytm1 complex (Thermochaetoides thermophila, UniProt G0SFB5); experiment: Biolayer interferometry peptide interference assay, immobilized Erb1, Ytm1 analyte preincubated with P1-P3; assay type: binding, Chaetomium thermophilum; details: BLI, 5 µM Ytm1 preincubated with equimolar peptide, reference without peptide 1.724e-3
T3 construct: 6xHis; made in house; host or cells: Ytm1: Sf9 insect cells (baculovirus); Erb1: Escherichia coli (DE3) BL21 CodonPlus (RIPL)
T3 sequence (G0SFB5 1-495): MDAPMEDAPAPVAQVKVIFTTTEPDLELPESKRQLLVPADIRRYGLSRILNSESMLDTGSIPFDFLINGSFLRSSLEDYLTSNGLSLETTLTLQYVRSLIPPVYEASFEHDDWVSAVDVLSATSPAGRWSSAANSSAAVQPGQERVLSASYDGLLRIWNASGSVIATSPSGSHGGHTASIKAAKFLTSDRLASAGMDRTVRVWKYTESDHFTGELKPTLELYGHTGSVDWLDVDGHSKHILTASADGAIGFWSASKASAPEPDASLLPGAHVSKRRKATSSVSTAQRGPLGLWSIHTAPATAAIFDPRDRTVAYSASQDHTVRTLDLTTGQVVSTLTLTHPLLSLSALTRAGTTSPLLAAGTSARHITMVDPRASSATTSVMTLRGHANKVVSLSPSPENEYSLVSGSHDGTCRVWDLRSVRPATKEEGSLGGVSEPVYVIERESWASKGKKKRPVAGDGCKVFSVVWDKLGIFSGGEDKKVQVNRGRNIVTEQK
Protocol: as §1
Potential interference peptide samples were evaluated by their ability to interfere the kinetics and affinity of the complex between Erb1 and Ytm1 as measured by Biolayer Interferometry (BLItz, Pall FortéBio Corp.) using Ni-NTA biosensors (FortéBio) and 50 mM HEPES, pH 7.5; 150 mM NaCl; 5% (v/v) glycerol; and 2 mM β-mercaptoethanol (BME) buffer. To set the reference KD, an 80 µg/ml solution of Erb1 was immobilized to the biosensor in order to obtain binding curves for increasing concentrations of Ytm1. According to this, an evaluation of Erb1-derived peptides (P1–P3) was performed using 5 µM Ytm1 previously incubated during 30 min at equimolar concentrations of each peptide. New KD values were determined. […]
Biolayer interferometry interference assays were used to evaluate the ability of each peptide to interfere in the in vitro formation of the Erb1/Ytm1 complex. […] Peptides were evaluated for their ability to decrease in the Erb1/Ytm1 complex formation by preincubating the analyte with each peptide derived from the immobilized partner. […] Erb1-derived peptides were evaluated by their ability to decrease Erb1/Ytm1 complex affinity. […]

Ytm1 [4] = target: T1, Ytm1; experiment: Differential scanning fluorimetry (thermofluor) of Ytm1 with peptide; assay type: binding, Chaetomium thermophilum; details: DSF, SYPRO Orange 1:1,000; 5 µM Ytm1, 1 mM peptide; 50 mM HEPES pH 7.5, 150 mM NaCl; 20-85°C at 1°C/min; triplicates
Protocol: Thermofluor assays ([Pantoliano et al., 2001]) were performed on a 7,500 Fast Real-Time PCR System (Applied Biosystems) measuring the gradual fluorescence generated by a 1:1,000 dilution of SYPRO Orange Protein Stain Gel (Supelco, Merck-Sigma) along with 1°C/min temperature increase from 20°C until 85°C.
The samples were mixed containing the protein Ytm1 at 5 µM in 50 mM HEPES pH 7.5, 150 mM NaCl and peptides P1-P3 at 1 mM concentration. Previously, lyophilized P2 and P3 were resuspended in the same Ytm1 buffer and P1 was solubilized in 10 mM Tris (hydroxymethyl)-methylamine (Tris-HCl), pH 8.8 for P1. Data of triplicated experiments were analyzed using GraphPad Prism 5.01 software.

[5] = target: T4, Ytm1 (Chaetomium thermophilum ribosome assembly factor) (Chaetomium thermophilum, UniProt G0SFB5 1-495); experiment: MST; 5 nM Ytm1 labelled with Red-NHS second-generation dye; 50 mM HEPES pH 7.5, 150 mM NaCl, 0.1% Pluronic F-127; peptide in sixteen serial dilutions (P1 1,230-0.0751 µM; P3 maximum 1,580 µM); Monolith NT.115; details: both partners purified
T4 construct: Ytm1, Chaetomium thermophilum; YTM1 gene amplified from total cDNA and cloned in pOPIN-F; For MST, Ytm1 was labelled with the Red-NHS second-generation dye; source: Sf9 insect cells (baculovirus), purified (Histrap-HP Ni, Superdex 200 SEC)
T4 sequence: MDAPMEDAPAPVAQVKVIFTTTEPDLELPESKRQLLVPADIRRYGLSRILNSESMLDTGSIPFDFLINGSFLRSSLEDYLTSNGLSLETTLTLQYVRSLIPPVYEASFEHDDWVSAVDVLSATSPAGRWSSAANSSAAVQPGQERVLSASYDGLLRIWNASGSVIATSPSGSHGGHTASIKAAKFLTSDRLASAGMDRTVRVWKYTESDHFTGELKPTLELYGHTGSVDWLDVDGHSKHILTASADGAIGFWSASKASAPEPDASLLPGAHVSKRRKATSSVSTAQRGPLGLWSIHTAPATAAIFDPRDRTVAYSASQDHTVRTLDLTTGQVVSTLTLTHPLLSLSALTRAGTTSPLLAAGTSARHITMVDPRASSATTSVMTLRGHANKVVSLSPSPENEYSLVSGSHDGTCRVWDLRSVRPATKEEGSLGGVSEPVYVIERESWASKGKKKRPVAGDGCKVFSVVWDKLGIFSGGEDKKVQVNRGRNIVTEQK

[6] = target: T5, Ytm1 (Chaetomium thermophilum ribosome assembly factor) (Chaetomium thermophilum, UniProt G0SFB5 1-495); experiment: BLI
T5 chain: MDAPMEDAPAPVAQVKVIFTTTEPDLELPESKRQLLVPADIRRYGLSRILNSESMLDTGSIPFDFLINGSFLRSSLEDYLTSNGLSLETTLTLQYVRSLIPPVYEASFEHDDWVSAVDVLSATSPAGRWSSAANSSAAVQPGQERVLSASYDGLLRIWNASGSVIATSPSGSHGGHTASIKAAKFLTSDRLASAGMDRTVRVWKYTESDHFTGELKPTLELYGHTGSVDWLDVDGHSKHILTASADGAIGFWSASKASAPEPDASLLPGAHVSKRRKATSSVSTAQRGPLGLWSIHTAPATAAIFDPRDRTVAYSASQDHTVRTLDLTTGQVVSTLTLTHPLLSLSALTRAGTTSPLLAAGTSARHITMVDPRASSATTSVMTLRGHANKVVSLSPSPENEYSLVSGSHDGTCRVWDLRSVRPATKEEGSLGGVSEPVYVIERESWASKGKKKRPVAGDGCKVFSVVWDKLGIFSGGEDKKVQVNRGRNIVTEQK

[7] = target: T4, Ytm1 (Chaetomium thermophilum ribosome …); experiment: BLI; biotinylated peptide (50 µg/ml) immobilised on streptavidin biosensor; Ytm1 (or Erb1 for Biot-P6) as analyte; interference-assay buffer with 0.05% BSA; details: both partners purified

T2 sequence (G0SCK6 whole entry, one chain of several): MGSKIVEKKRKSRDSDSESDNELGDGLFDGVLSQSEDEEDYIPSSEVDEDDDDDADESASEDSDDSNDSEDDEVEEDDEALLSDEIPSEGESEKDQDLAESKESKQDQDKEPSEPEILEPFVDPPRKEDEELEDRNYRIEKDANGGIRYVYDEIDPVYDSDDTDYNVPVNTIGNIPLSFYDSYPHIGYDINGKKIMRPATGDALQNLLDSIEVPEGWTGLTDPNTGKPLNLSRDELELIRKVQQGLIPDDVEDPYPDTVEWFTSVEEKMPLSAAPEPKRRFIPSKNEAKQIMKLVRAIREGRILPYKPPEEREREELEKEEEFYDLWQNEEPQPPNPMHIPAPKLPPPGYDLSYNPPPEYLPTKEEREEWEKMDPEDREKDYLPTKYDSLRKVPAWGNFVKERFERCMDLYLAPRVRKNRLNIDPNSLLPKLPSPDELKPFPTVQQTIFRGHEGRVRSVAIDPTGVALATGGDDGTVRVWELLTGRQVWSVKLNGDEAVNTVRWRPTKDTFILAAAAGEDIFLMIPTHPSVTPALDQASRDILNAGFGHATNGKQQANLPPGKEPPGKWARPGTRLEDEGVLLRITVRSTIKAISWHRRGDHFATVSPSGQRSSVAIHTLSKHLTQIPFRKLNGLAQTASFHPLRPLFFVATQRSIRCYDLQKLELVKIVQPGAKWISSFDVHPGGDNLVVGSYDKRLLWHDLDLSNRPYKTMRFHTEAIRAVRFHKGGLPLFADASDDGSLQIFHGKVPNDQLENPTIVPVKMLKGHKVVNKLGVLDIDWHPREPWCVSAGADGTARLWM

CC(C)C[C@H](NC(=O)[C@H](CCC(=O)O)NC(=O)[C@H](Cc1c[nH]c2ccccc12)NC(=O)[C@@H](NC(=O)CCCC[C@@H]1SC[C@@H]2NC(=O)N[C@@H]21)C(C)C)C(=O)N[C@@H](CC(C)C)C(=O)N[C@H](C(=O)NCC(=O)N[C@@H](CCCNC(=N)N)C(=O)N[C@@H](CCC(N)=O)C(=O)N[C@H](C(=O)N[C@@H](Cc1c[nH]c2ccccc12)C(=O)O)C(C)C)[C@@H](C)O [Biot-P1] (Biotin-VWELLTGRQVW-OH)
kon (Ytm1 [1]): 386 M⁻¹ s⁻¹

CC(C)[C@H](NC(=O)[C@H](CS)NC(=O)[C@H](Cc1c[nH]c2ccccc12)NC(=O)[C@@H]1CCCN1C(=O)[C@H](CCC(=O)O)NC(=O)[C@H](CCCNC(=N)N)NC(=O)[C@@H]1CCCN1C(=O)[C@H](Cc1c[nH]cn1)NC(=O)[C@H](Cc1c[nH]c2ccccc12)NC(=O)[C@H](CC(=O)O)NC(=O)CCCC[C@@H]1SC[C@@H]2NC(=O)N[C@@H]21)C(=O)O [Biot-P3] (Biotin-DWHPREPWCV-OH)
kon (Ytm1 [1]): 829 M⁻¹ s⁻¹

AGMDRTV [Peptide P5, Ytm1-derived peptide AGMDRTV, residues 194–200]
kd (1/s) of Ytm1/Erb1 binding after preincubation of Erb1 with peptide (Erb1/Ytm1 complex [2]): 0.001655 s⁻¹

Biotin-RGHANKV [Biot-P6]
Binding of Erb1 to immobilized biotinylated peptide (Erb1): could not detect binding
Binding of Erb1 to immobilized biotinylated peptide (Erb1; listed as biot-P6): did not show binding

HDDWVSA [Peptide P4, Ytm1-derived peptide HDDWVSA, residues 110–116]
kd (1/s) of Ytm1/Erb1 binding after preincubation of Erb1 with peptide (Erb1/Ytm1 complex [2]): 0.001585 s⁻¹

QQTIFRGH [Peptide P2, Erb1-derived peptide QQTIFRGH, residues 445–452]
kd (1/s) of Erb1/Ytm1 binding after preincubation of Ytm1 with peptide (Erb1/Ytm1 complex [3]): 0.01393 s⁻¹
Thermal shift (Tm) of Ytm1 in the presence of peptide (Ytm1 [4]): no significant thermal shift

B1: Peptide P1 (Erb1 479-489) (peptide)
peptide: VWELLTGRQVW
notes: Erb1, Chaetomium thermophilum, residues 479-489; source: synthetic peptide, bought: Synpeptide Co., Ltd., Shanghai
Kd [5]: 8.2 µM

B2: Biot-P1 (N-terminally biotinylated Erb1 479-489) (peptide)
peptide: Biotin-VWELLTGRQVW
notes: as for B1
Kd [6]: 33.4 µM
binding result [7]: binds

B3: Biot-P3 (N-terminally biotinylated Erb1 780-789) (peptide)
peptide: Biotin-DWHPREPWCV
notes: Erb1, Chaetomium thermophilum, residues 780-789; source: synthetic peptide, bought: Synpeptide Co., Ltd., Shanghai
Kd [6]: 6.29 µM
binding result [7]: binds
